Test results as given in patent publication US9765105B2, “Macrolide compound” (Pulike Biological Engineering, Inc., priority 2013, dated 2017).

Columns and labels:
Assay in all cases: in vitro susceptibility, MIC by mini broth dilution
Assay type in all cases: cell-based
[1] = system: Staphylococcus aureus CVCC26003; settings: strain CVCC26003
Method in brief: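 MICs were determined by mini broth dilution under NCCLS standards in CAMHB, using revived S. aureus CVCC26003 subcultured 20 h at 35° C. Compounds were two-fold serially diluted in DMSO across 11 wells, with duplicate rows. Bacterial suspension was diluted 1:200 in medium before inoculation.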

[2] = system: Actinobacillus pleuropneumoniae CVCC262; settings: strain CVCC262
Method in brief: (§1)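 MICs determined by mini broth dilution following NCCLS standards, using two-fold serial dilutions of compound in DMSO across 11 gradients, in duplicate rows. Strains were revived and subcultured at 35 °C for 20 h. Bacterial suspension was diluted 1:200 in liquid medium.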

Haemophilus parasuis = system: Haemophilus parasuis
Method in brief: as §1

[3] = system: Streptococcus equines CVCC556; settings: strain CVCC556
Method in brief: as §1

[4] = system: Pasteurella multocida CVCC399; settings: strain CVCC399
Method in brief: as §1

SMILES	MIC values, Staphylococcus aureus CVCC26003 [1]	MIC values, Actinobacillus pleuropneumoniae CVCC262 [2]	MIC values, Haemophilus parasuis (Haemophilus parasuis)	MIC values, Streptococcus equines CVCC556 [3]	MIC values, Pasteurella multocida CVCC399 [4]
CCC(CO)NC[C@]1(O)[C@H](C)O[C@@H](O[C@H]2[C@H](C)[C@@H](O[C@@H]3O[C@H](C)C[C@H](N(C)C)[C@H]3O)[C@](C)(O)C[C@@H](C)NC[C@H](C)[C@@H](O)[C@](C)(O)[C@@H](CC)OC(=O)[C@@H]2C)C[C@@]1(C)OC (stereo partly drawn) [syzx-51, (2R,3S,4R,5S,8R,10R,11R,12S,13S,14R)-13-[(2,6-dideoxy-3-C-methyl-3-O-methyl-4-C-[(1-hydroxymethyl-propylamino)-methyl]-α-L-ribopyranosyl)oxy]-2-ethyl-3,4,10-trihydroxy-3,5,8,10,12,14-hexamethyl-11-[[3,4,6-trideoxy-3-(dimethylamino)-β-D-xylo-hexopyranosy]oxy]-1-oxa-7-azacyclopentadecan-15-one]	0.5 ug/mi	1 ug/mi	2 ug/mi	1 ug/mi	0.5 ug/mi
CC[C@H]1OC(=O)[C@H](C)[C@@H](O[C@H]2C[C@@](C)(OC)[C@](O)(CNCC(O)c3ccccc3)[C@H](C)O2)[C@H](C)[C@@H](O[C@@H]2O[C@H](C)C[C@H](N(C)C)[C@H]2O)[C@](C)(O)C[C@@H](C)NC[C@H](C)[C@@H](O)[C@]1(C)O (stereo partly drawn) [syzx-52, (2R,3S,4R,5S,8R,10R,11R,12S,13S,14R)-13-[(2,6-dideoxy-3-C-methyl-3-O-methyl-4-C-[(2-hydroxy-2-phenyl-ethylamino)-methyl]-α-L-ribopyranosyl)oxy]-2-ethyl-3,4,10-trihydroxy-3,5,8,10,12,14-hexamethyl-11-[[3,4,6-trideoxy-3-(dimethylamino)-β-D-xylo-hexopyranosy]oxy]-1-oxa-7-azacyclopentadecan-15-one]	0.5 ug/mi	32 ug/mi	≦0.25 ug/mi	0.5 ug/mi	0.5 ug/mi
CC[C@H]1OC(=O)[C@H](C)[C@@H](O[C@H]2C[C@@](C)(OC)[C@](O)(CNCCCC(OC)OC)[C@H](C)O2)[C@H](C)[C@@H](O[C@@H]2O[C@H](C)C[C@H](N(C)C)[C@H]2O)[C@](C)(O)C[C@@H](C)NC[C@H](C)[C@@H](O)[C@]1(C)O [syzx-56, (2R,3S,4R,5S,8R,10R,11R,12S,13S,14R)-13-[(2,6-dideoxy-3-C-methyl-3-O-methyl-4-C-[(4-dimethoxy-butylamino)-methyl]-α-L-ribopyranosyl)oxy]-2-ethyl-3,4,10-trihydroxy-3,5,8,10,12,14-hexamethyl-11-[[3,4,6-trideoxy-3-(dimethylamino)-β-D-xylo-hexopyranosy]oxy]-1-oxa-7-azacyclopentadecan-15-one]	0.5 ug/mi	0.25 ug/mi	0.5 ug/mi	0.25 ug/mi	1 ug/mi
CC[C@H]1OC(=O)[C@H](C)[C@@H](O[C@H]2C[C@@](C)(OC)[C@](O)(CNCc3ccc(Cl)c(Cl)c3)[C@H](C)O2)[C@H](C)[C@@H](O[C@@H]2O[C@H](C)C[C@H](N(C)C)[C@H]2O)[C@](C)(O)C[C@@H](C)NC[C@H](C)[C@@H](O)[C@]1(C)O [syzx-57, (2R,3S,4R,5S,8R,10R,11R,12S,13S,14R)-13-[(2,6-dideoxy-3-C-methyl-3-O-methyl-4-C-[(3,4-dichloro-benzylamino)-methyl]-α-L-ribopyranosyl)oxy]-2-ethyl-3,4,10-trihydroxy-3,5,8,10,12,14-hexamethyl-11-[[3,4,6-trideoxy-3-(dimethylamino)-β-D-xylo-hexopyranosy]oxy]-1-oxa-7-azacyclopentadecan-15-one]	≦0.25 ug/mi	≦0.25 ug/mi	≦0.25 ug/mi	4 ug/mi	32 ug/mi
CC[C@H]1OC(=O)[C@H](C)[C@@H](O[C@H]2C[C@@](C)(OC)[C@](O)(CNC(C)CCCN(C)C)[C@H](C)O2)[C@H](C)[C@@H](O[C@@H]2O[C@H](C)C[C@H](N(C)C)[C@H]2O)[C@](C)(O)C[C@@H](C)NC[C@H](C)[C@@H](O)[C@]1(C)O (stereo partly drawn) [syzx-59, (2R,3S,4R,5S,8R,10R,11R,12S,13S,14R)-13-[(2,6-dideoxy-3-C-methyl-3-O-methyl-4-C-[(1-methyl-4-dimethylaminobutylamino)-methyl]-α-L-ribopyranosyl)oxy]-2-ethyl-3,4,10-trihydroxy-3,5,8,10,12,14-hexamethyl-11-[[3,4,6-trideoxy-3-(dimethylamino)-β-D-xylo-hexopyranosy]oxy]-1-oxa-7-azacyclopentadecan-15-one]	1 ug/mi	32 ug/mi	0.5 ug/mi	2 ug/mi	2 ug/mi
CCC1OC(=O)C(C)C(OC2CC(C)(OC)C(O)(CNCCCNC3CCCCC3)C(C)O2)C(C)C(OC2OC(C)CC(N(C)C)C2O)C(C)(O)CC(C)NCC(C)C(O)C1(C)O [syzx-60, (2R,3S,4R,5S,8R,10R,11R,12S,13S,14R)-13-[(2,6-dideoxy-3-C-methyl-3-O-methyl-4-C-[[(3-cyclohexylamino)propylamino]-methyl]-α-L-ribopyranosyl)oxy]-2-ethyl-3,4,10-trihydroxy-3,5,8,10,12,14-hexamethyl-11-[[3,4,6-trideoxy-3-(dimethylamino)-β-D-xylo-hexopyranosy]oxy]-1-oxa-7-azacyclopentadecan-15-one]	1 ug/mi	8 ug/mi	1 ug/mi	2 ug/mi	2 ug/mi
C#CC=C(C)NC[C@]1(O)[C@H](C)O[C@@H](O[C@H]2[C@H](C)[C@@H](O[C@@H]3O[C@H](C)C[C@H](N(C)C)[C@H]3O)[C@](C)(O)C[C@@H](C)NC[C@H](C)[C@@H](O)[C@](C)(O)[C@@H](CC)OC(=O)[C@@H]2C)C[C@@]1(C)OC [syzx-62]	0.5 ug/mi	8 ug/mi	≦0.25 ug/mi	≦0.25 ug/mi	0.5 ug/mi
CCCC(C)NC[C@]1(O)[C@H](C)O[C@@H](O[C@H]2[C@H](C)[C@@H](O[C@@H]3O[C@H](C)C[C@H](N(C)C)[C@H]3O)[C@](C)(O)C[C@@H](C)NC[C@H](C)[C@@H](O)[C@](C)(O)[C@@H](CC)OC(=O)[C@@H]2C)C[C@@]1(C)OC (stereo partly shown) [syzx-63]	0.5 ug/mi	0.5 ug/mi	≦0.25 ug/mi	≦0.25 ug/mi	≦0.25 ug/mi
CC[C@H]1OC(=O)[C@H](C)[C@H](O[C@H]2C[C@@](C)(OC)[C@](O)(CNCCc3ccncc3)[C@H](C)O2)[C@H](C)[C@@H](O[C@@H]2O[C@H](C)C[C@H](N(C)C)[C@H]2O)[C@](C)(O)C[C@@H](C)NC[C@H](C)[C@@H](O)[C@]1(C)O [syzx-64]	≦0.25 ug/mi	0.5 ug/mi	≦0.25 ug/mi	0.25 ug/mi	0.25 ug/mi
CC[C@H]1OC(=O)[C@H](C)[C@@H](O[C@H]2C[C@@](C)(OC)[C@](O)(CNc3ccccc3F)[C@H](C)O2)[C@H](C)[C@@H](O[C@@H]2O[C@H](C)C[C@H](N(C)C)[C@H]2O)[C@](C)(O)C[C@@H](C)NC[C@H](C)[C@@H](O)[C@]1(C)O [syzx-68, (2R,3S,4R,5S,8R,10R,11R,12S,13S,14R)-13-[(2,6-dideoxy-3-C-methyl-3-O-methyl-4-C-[(2-fluoro-phenyl-amino)-methyl]-α-L-ribopyranosyl)oxy]-2-ethyl-3,4,10-trihydroxy-3,5,8,10,12,14-hexamethyl-11-[[3,4,6-trideoxy-3-(dimethylamino)-β-D-xylo-hexopyranosy]oxy]-1-oxa-7-azacyclopentadecan-15-one]	≦0.25 ug/mi	8 ug/mi	≦0.25 ug/mi	≦0.25 ug/mi	8 ug/mi
CC[C@H]1OC(=O)[C@H](C)[C@@H](O[C@H]2C[C@@](C)(OC)[C@](O)(CNCCCN3CCOCC3)[C@H](C)O2)[C@H](C)[C@@H](O[C@@H]2O[C@H](C)C[C@H](N(C)C)[C@H]2O)[C@](C)(O)C[C@@H](C)NC[C@H](C)[C@@H](O)[C@]1(C)O [syzx-69, (2R,3S,4R,5S,8R,10R,11R,12S,13S,14R)-13-[(2,6-dideoxy-3-C-methyl-3-O-methyl-4-C-[(3-morpholinyl-propyl-amino)-methyl]-α-L-ribopyranosyl)oxy]-2-ethyl-3,4,10-trihydroxy-3,5,8,10,12,14-hexamethyl-11-[[3,4,6-trideoxy-3-(dimethylamino)-β-D-xylo-hexopyranosy]oxy]-1-oxa-7-azacyclopentadecan-15-one]	1 ug/mi	1 ug/mi	1 ug/mi	0.5 ug/mi	0.5 ug/mi
